Data as given in patent publication US7767796B2, “N4 chelator conjugates” (GE Healthcare Limited, priority 2004, dated 2010).

Experiments:
[1] = Measurement of lipophilicity (LogP): octanol-water partition coefficient of the 99mTc complexes; format: physicochemical; conditions: for Log P (octanol/50 mM phosphate buffer): 99mTc complex of the compound, 1-octanol / 50 mM phosphate buffer pH 7.4, room temperature; for Log P: 99mTc complex, repeated in the biodistribution table
Procedure: The tube was vortexed at room temperature for 1 min and then was centrifuged at high speed for 60 min. 0.1 ml samples of both phases were pipetted into other test tubes with adequate care to avoid cross contamination between the phases, and were counted in a Wallac Wizzard gamma-counter. The measurement was repeated three times.
The partition coefficient, P, was calculated as follows: P=(cpm in octanol−(cpm background)/( (cpm in water−(cpm background).
Usually the final partition coefficient value was expressed as log P.

[2] = Biodistribution of the 99mTc complexes in normal male Wistar rats; format: in vivo; conditions: 99mTc complex, rat; for Clearance (% ID) HBS 120 min / Blood 120 min / Heart 120 min / Liver 120 min / Lung 120 min / Muscle 120 min / Clearance (% ID) Urine (K, B, U) 120 min: 120 min p.i.; for Blood 5 min: 5 min p.i.; for Heart/blood / Heart/liver / Heart/lung / Heart/muscle: ratio of uptake, 120 min values
Procedure: The ^99mTc complexes of Compounds 4, 5 and 7 were prepared as described in Example 8. […] Animals were anaesthetised with Halothane (6% in oxygen), injected with 0.1 ml (500 MBq/ml) Test Item, sacrificed, dissected and the samples assayed for radioactivity.

Row | SMILES | Log P (octanol/50 mM phosphate buffer) [1] | Log P [1] | Clearance (% ID) HBS 120 min [2] | Blood 5 min [2] | Blood 120 min [2] | Heart 120 min [2] | Liver 120 min [2] | Lung 120 min [2] | Muscle 120 min [2] | Heart/blood [2] | Heart/liver [2] | Heart/lung [2] | Heart/muscle [2] | Clearance (% ID) Urine (K, B, U) 120 min [2]
1 | CCCCc1nc(Cl)c(CNC(=O)C(CC(C)C)NC(=O)COCC(=O)NCCOCCOCCOCCNC(=O)CC(CNCCN)CNCCN)n1Cc1ccc(-c2ccccc2-c2nn[nH]n2)cc1 (centres unmarked) (99mTc complex, metal not drawn) [Compound 5] | −0.1 | −0.1 | 54.21 % ID | 1.5 % ID/G | 0.26 % ID/G | 0.13 % ID/G | 3.53 % ID/G | 0.6 % ID/G | 0.9 % ID/G | 0.5 | 0.04 | 0.21 | 1.44 | 14.45 % ID
2 | CC[C@H](C)[C@H](NC(=O)[C@@H]1CCCN1C(=O)[C@H](Cc1cnc[nH]1)NC(=O)[C@@H](NC(=O)[C@H](Cc1ccc(O)cc1)NC(=O)[C@@H](NC(=O)[C@H](CCCNC(=N)N)NC(=O)NCCCCCCC(CNCCN)CNCCN)C(C)C)[C@@H](C)CC)C(=O)O (99mTc complex, metal not drawn) [Compound 7] | <−2 | <−2 | 19.63 % ID | 0.84 % ID/G | 0.05 % ID/G | 0.1 % ID/G | 1.55 % ID/G | 0.4 % ID/G | 0.1 % ID/G | 2 | 0.06 | 0.25 | 1 | 64.26 % ID
3 | CCCCc1nc(Cl)c(CNC(=O)C(CC(C)C)NC(=O)CC(CNCCN)CNCCN)n1Cc1ccc(-c2ccccc2-c2nn[nH]n2)cc1 (centres unmarked) (99mTc complex, metal not drawn) [Compound 4] | +0.6 | 0.6 | 74.65 % ID | 3.26 % ID/G | 0.91 % ID/G | 0.44 % ID/G | 6.52 % ID/G | 1.84 % ID/G | 0.34 % ID/G | 0.49 | 0.07 | 0.24 | 1.3 | 21.13 % ID
4 | NCCNCC(CCCCCCNC(=O)c1ccccc1)CNCCN [Compound 6] | −1.8 | – | – | – | – | – | – | – | – | – | – | – | – | –
5 | NCCNCC(CNCCN)CC(=O)NCc1ccccc1 [Compound 3] | <−2 | – | – | – | – | – | – | – | – | – | – | – | – | –
